Experimental data reported in patent publication US9726663B2, “Method of identifying or evaluating synergistic combinations of actives and compositions containing the same” (The Procter & Gamble Company, priority 2012, dated 2017).

Tests used:
[1] = system: human, dermal fibroblasts (BJ cell line); assay: Extracellular acidification rate (glycolysis) of fibroblasts, XF Extracellular Flux Analyzer; type: cell-based
Method: (§1) With regard to the fibroblasts discussed above in FIGS. 5A, 5B, SC, 5D, 5E, 6, 7A, 7B, 7C, 7D, 7E and 8 frozen, human dermal fibroblasts were obtained from the BJ cell line commercially available from ATCC, Bethesda, Md. The fibroblasts were grown to 70-80% confluence in a fibroblast culture medium of Eagle's Minimum Essential Medium (“EMEM”) supplemented with 10% fetal bovine serum (“FBS”) and gentamicin/amphotericin B ×500 solution (EMEM and FBS are available from ATCC and gentamicin/amphotericin B ×500 solution is available from Invitrogen). […] Each well included 100 μL of the fibroblast medium described above. A test medium was made from Dulbecco's Modified Eagle Medium (available from Seahorse Bioscience), 25 mM Glucose and 1 mM pyruvate. The test medium was warmed to 37° C. and the pH adjusted to 7.4. The cells were grown and plated at 37° C. and 5% CO2 air. The fibroblast medium in the wells was replaced by the test medium 1 hour prior to taking measurements. Oxygen consumption rate and extracellular acidification rate may be detected using an XF Extracellular Flux Analyzer or equivalent. The device should be capable of non-lethally and simultaneously detecting metabolic indicators of the oxphos and glycolysis pathways in a controlled environment, as well as providing […]. The cells may be provided in a multi-well plate suitable for use with the instrument (e.g., 24-well or 96 well plate) and washed prior to testing. The cells may be washed by any suitable means known in the art (e.g., using a Seahorse Biosciences XF prep station). It may be desirable to use a suitable prep station such as an XF prep station available from Seahorse Biosciences). When washing the cells, it may be desirable to remove the medium from the wells and wash the cells three times with a suitable amount of test medium (e.g., 180 μL in a 96-well plate or 600 μL in a 24-well plate). After washing the cells, a suitable amount (e.g., 180 μL) of an appropriate test medium is placed in each well, and the cells are equilibrated at 37° C. in a CO2-free incubator for 1-1.5 hours prior to taking placing the plate in the instrument for testing. Following the equilibration period, load the plate containing the cells into the instrument and equilibrate according to manufacturer's instructions. The entire test is conducted at 37° C. In some embodiments, the instrument may be to provide a three minute mix cycle, a two minute wait cycle, and a 3 minute measurement cycle for keratinocytes and a two minute mix cycle, two minute wait cycle, and 3 minute measurement cycle for fibroblasts. The cycles should be repeated for at least 88 minutes. It is to be appreciated that the cycles and times may be modified according to cell type and experiment design, as desired. The following example illustrates how the method herein can be used to identify synergistic combinations of skin care actives. Hydrogen peroxide is a well known ROS, and is used in this example to illustrate the undesirable metabolic effects associated with exposure of a cell to an oxidative stressor. The hydrogen peroxide was prepared at 10X working concentration in the fibroblast test medium described above. The test agents are niacinamide (also known as vitamin B3) and tocoquinone both commercially available from Sigma. The test agents were each prepared at 10× the final working concentration in the fibroblast test medium described above to provide a test agent solution. The stressor solution and the test agent solutions were both warmed to 37° C. and pH adjusted to 7.4. The cells are frozen, human, dermal fibroblasts obtained from ATCC (BJ cell line). The cells were cultured and prepared according to the test method described above. The fibroblasts were plated in Gelatin-coated, 96-well plate. Each well contained approximately 4×10^4 cells and 180 μL of fibroblast test medium (i.e., Seahorse Biosciences DMEM, 25 mM glucose and 1 mM pyruvate) at 37° C. and pH 7.4. […]

[2] = system: human, dermal fibroblasts (BJ cell line); assay: Oxygen consumption rate (oxidative phosphorylation) of fibroblasts, XF Extracellular Flux Analyzer; type: cell-based; set-up: Average OCR value per treatment group: unit not given here
Method: as §1

[3] = rate number 1, before addition of stressor/test agents (basal)
[4] = rate number 2, before addition of stressor/test agents (basal)
[5] = rate number 3, before addition of stressor/test agents (basal, reference)
[6] = rate number 4, 1.5 mM hydrogen peroxide, 0.25 mM niacinamide, 0.025 mM tocoquinone
[7] = rate number 5, 1.5 mM hydrogen peroxide, 0.25 mM niacinamide, 0.025 mM tocoquinone
[8] = rate number 6, 1.5 mM hydrogen peroxide, 0.25 mM niacinamide, 0.025 mM tocoquinone
[9] = rate number 7, 1.5 mM hydrogen peroxide, 0.25 mM niacinamide, 0.025 mM tocoquinone
[10] = rate number 8, 1.5 mM hydrogen peroxide, 0.25 mM niacinamide, 0.025 mM tocoquinone
[11] = rate number 9, 1.5 mM hydrogen peroxide, 0.25 mM niacinamide, 0.025 mM tocoquinone
[12] = rate number 10, 1.5 mM hydrogen peroxide, 0.25 mM niacinamide, 0.025 mM tocoquinone
[13] = rate number 11, 1.5 mM hydrogen peroxide, 0.25 mM niacinamide, 0.025 mM tocoquinone
[14] = rate number 12, 1.5 mM hydrogen peroxide, 0.25 mM niacinamide, 0.025 mM tocoquinone
[15] = rate number 13, 1.5 mM hydrogen peroxide, 0.25 mM niacinamide, 0.025 mM tocoquinone
[16] = rate number 14, 1.5 mM hydrogen peroxide, 0.25 mM niacinamide, 0.025 mM tocoquinone
[17] = rate number 15, 1.5 mM hydrogen peroxide, 0.25 mM niacinamide, 0.025 mM tocoquinone
[18] = rate number 16, 1.5 mM hydrogen peroxide, 0.25 mM niacinamide, 0.025 mM tocoquinone
[19] = rate number 17, 1.5 mM hydrogen peroxide, 0.25 mM niacinamide, 0.025 mM tocoquinone
[20] = rate number 18, 1.5 mM hydrogen peroxide, 0.25 mM niacinamide, 0.025 mM tocoquinone

SMILES: CC1=C(C)C(=O)C(CCC(C)(O)CCCC(C)CCCC(C)CCCC(C)C)=C(C)C1=O (stereo not shown) [tocoquinone]
- Average ECAR value per treatment group [1, 3]: 107.45 percentage of rate 3
- Average ECAR value per treatment group [1, 4]: 99.58 percentage of rate 3
- Average ECAR value per treatment group [1, 5]: 100 percentage of rate 3
- Average ECAR value per treatment group [1, 6]: 56.77 percentage of rate 3
- Average ECAR value per treatment group [1, 7]: 35.13 percentage of rate 3
- Average ECAR value per treatment group [1, 8]: 32.57 percentage of rate 3
- Average ECAR value per treatment group [1, 9]: 32.46 percentage of rate 3
- Average ECAR value per treatment group [1, 10]: 34.54 percentage of rate 3
- Average ECAR value per treatment group [1, 11]: 36.55 percentage of rate 3
- Average ECAR value per treatment group [1, 12]: 36.68 percentage of rate 3
- Average ECAR value per treatment group [1, 13]: 35.75 percentage of rate 3
- Average ECAR value per treatment group [1, 14]: 32.86 percentage of rate 3
- Average ECAR value per treatment group [1, 15]: 29.78 percentage of rate 3
- Average ECAR value per treatment group [1, 16]: 28.15 percentage of rate 3
- Average ECAR value per treatment group [1, 17]: 28.07 percentage of rate 3
- Average ECAR value per treatment group [1, 18]: 30.73 percentage of rate 3
- Average ECAR value per treatment group [1, 19]: 31.49 percentage of rate 3
- Average ECAR value per treatment group [1, 20]: 31.18 percentage of rate 3
- effect on reduction in OCR caused by hydrogen peroxide ([2]; in combination with 1.5 mM H2O2, 0.25 mM niacinamide, 0.025 mM tocoquinone): appears to lessen the reduction in OCR caused by the hydrogen peroxide about the same or slightly less than the niacinamide
- Average OCR value per treatment group [2, 3]: 101.04
- Average OCR value per treatment group [2, 4]: 101.44
- Average OCR value per treatment group [2, 5]: 100
- Average OCR value per treatment group [2, 6]: −21.48
- Average OCR value per treatment group [2, 7]: 64.55
- Average OCR value per treatment group [2, 8]: 68.43
- Average OCR value per treatment group [2, 9]: 59.47
- Average OCR value per treatment group [2, 10]: 53.35
- Average OCR value per treatment group [2, 11]: 49.83
- Average OCR value per treatment group [2, 12]: 48.18
- Average OCR value per treatment group [2, 13]: 48.82
- Average OCR value per treatment group [2, 14]: 49.81
- Average OCR value per treatment group [2, 15]: 47.50
- Average OCR value per treatment group [2, 16]: 44.97
- Average OCR value per treatment group [2, 17]: 41.00
- Average OCR value per treatment group [2, 18]: 37.55
- Average OCR value per treatment group [2, 19]: 32.67
- Average OCR value per treatment group [2, 20]: 28.15
